Source: the supplement of paper PMC10307832

Columns and labels:
Assay in all cases: relative viability (nuclei count vs DMSO), 5 days (fraction); higher = more cells survive
Selisistat + Palbociclib = compound: C1CC(C2=C(C1)C3=C(N2)C=CC(=C3)Cl)C(=O)N [Selisistat] + CC(=O)c1c(C)c2cnc(Nc3ccc(N4CCNCC4)cn3)nc2n(C2CCCC2)c1=O [Palbociclib] (partner 0.5 µM)
Procedure, shortened: (§1)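 Values are medians from duplicate plates. Each reflects relative viability, defined as the nuclei count of treated wells over that of vehicle wells. Lung cancer cell lines in 1536-well plates were pin-tool dosed one day after seeding with one drug alone or with a fixed anchor-drug dose plus five library-drug doses (not always all listed) in √10 steps, then fixed, stained and imaged at 4× after 5 days.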

Serdemetan + Crizotinib = compound: c1ccc2c(CCNc3ccc(Nc4ccncc4)cc3)c[nH]c2c1 [Serdemetan] + C[C@@H](Oc1cc(-c2cnn(C3CCNCC3)c2)cnc1N)c1c(Cl)ccc(F)c1Cl [Crizotinib] (partner 1 µM)
Procedure, shortened: as §1

Selisistat + Navitoclax = compound: C1CC(C2=C(C1)C3=C(N2)C=CC(=C3)Cl)C(=O)N [Selisistat] + CC1(C)CCC(c2ccc(Cl)cc2)=C(CN2CCN(c3ccc(C(=O)NS(=O)(=O)c4ccc(N[C@H](CCN5CCOCC5)CSc5ccccc5)c(S(=O)(=O)C(F)(F)F)c4)cc3)CC2)C1 [Navitoclax] (partner 0.5 µM)
Procedure, shortened: as §1

Serdemetan + Linsitinib = compound: c1ccc2c(CCNc3ccc(Nc4ccncc4)cc3)c[nH]c2c1 [Serdemetan] + C[C@]1(O)C[C@@H](c2nc(-c3ccc4ccc(-c5ccccc5)nc4c3)c3c(N)nccn32)C1 [Linsitinib] (partner 1 µM)
Procedure, shortened: as §1

| Cell Line | relative viability (Selisistat + Palbociclib; first compound 0.4 µM) | relative viability (Selisistat + Palbociclib; first compound 1.265 µM) | relative viability (Selisistat + Palbociclib; first compound 4 µM) | relative viability (Selisistat + Palbociclib; first compound 12.65 µM) | relative viability (Selisistat + Palbociclib; first compound 40 µM) | relative viability (Serdemetan + Crizotinib; first compound 0.04 µM) | relative viability (Serdemetan + Crizotinib; first compound 0.1265 µM) | relative viability (Serdemetan + Crizotinib; first compound 0.4 µM) | relative viability (Serdemetan + Crizotinib; first compound 1.265 µM) | relative viability (Serdemetan + Crizotinib; first compound 4 µM) | relative viability (Selisistat + Navitoclax; first compound 0.4 µM) | relative viability (Selisistat + Navitoclax; first compound 1.265 µM) | relative viability (Selisistat + Navitoclax; first compound 4 µM) | relative viability (Selisistat + Navitoclax; first compound 12.65 µM) | relative viability (Selisistat + Navitoclax; first compound 40 µM) | relative viability (Serdemetan + Linsitinib; first compound 0.04 µM) | relative viability (Serdemetan + Linsitinib; first compound 0.1265 µM) | relative viability (Serdemetan + Linsitinib; first compound 0.4 µM) | relative viability (Serdemetan + Linsitinib; first compound 1.265 µM) | relative viability (Serdemetan + Linsitinib; first compound 4 µM) |
| --- | --- | --- | --- | --- | --- | --- | --- | --- | --- | --- | --- | --- | --- | --- | --- | --- | --- | --- | --- | --- |
| HCC-44 | 1.05 | 0.975 | 1.07 | 0.994 | 1.06 | 0.766 | 0.828 | 0.71 | 0.54 | 0.599 | 1.03 | 0.955 | 0.911 | 0.997 | 1.02 | 0.637 | 0.634 | 0.598 | 0.426 | 0.424 |
| HCC-78 | 0.488 | 0.461 | 0.435 | 0.476 | 0.473 | 0.342 | 0.325 | 0.322 | 0.321 | 0.322 | 0.961 | 0.836 | 0.765 | 0.705 | 0.714 | 0.505 | 0.525 | 0.542 | 0.499 | 0.257 |
| HCC-366 | 0.414 | 0.447 | 0.37 | 0.355 | 0.377 | 0.528 | 0.412 | 0.117 | 0.0254 | 0.0545 | 1.15 | 0.965 | 0.89 | 0.97 | 1.08 | 0.731 | 0.317 | 0.244 | 0.0612 | 0.0456 |
| HCC-827 | 0.483 | 0.475 | 0.534 | 0.439 | 0.527 | 0.948 | 0.867 | – | 0.791 | 0.615 | 1.03 | 0.992 | 1.01 | 1.01 | 1.01 | 0.892 | 0.9 | – | 0.689 | 0.762 |
| HOP-62 | 0.43 | 0.43 | 0.508 | 0.424 | 0.619 | 0.719 | 0.995 | 0.684 | 0.857 | 0.494 | 1.07 | 0.905 | 1.02 | 0.934 | 1.16 | 1.02 | 0.934 | 0.968 | 0.738 | 0.47 |
| IA-LM | – | – | – | – | – | 0.898 | 0.767 | 0.813 | 0.465 | 0.357 | 0.787 | 0.82 | 0.946 | 0.818 | 0.835 | 0.549 | 0.679 | 0.537 | 0.394 | 0.388 |
| LC-2-ad | 0.508 | 0.49 | 0.498 | 0.502 | 0.555 | 0.455 | 0.429 | 0.39 | 0.394 | 0.407 | 0.514 | 0.475 | 0.507 | 0.485 | 0.561 | 0.908 | 0.805 | 0.857 | – | 0.722 |
| LCLC-103H | 0.3 | 0.509 | 0.452 | 0.435 | 0.558 | 0.977 | 1.12 | 0.979 | 0.94 | 0.995 | – | – | – | – | – | 0.81 | 1.06 | 1.09 | 0.918 | 0.778 |
| NCI-H358 | 0.137 | 0.128 | 0.128 | 0.192 | 0.149 | 0.599 | 0.566 | 0.618 | 0.593 | 0.292 | – | – | – | – | – | 0.672 | 0.781 | 0.679 | 0.465 | 0.651 |
| NCI-H522 | 1 | 0.969 | 0.714 | 0.921 | 1.02 | – | – | – | – | – | – | – | – | – | – | – | – | – | – | – |
| NCI-H596 | – | – | – | – | – | 1 | 0.862 | 0.914 | 0.569 | 0.51 | 0.952 | 0.959 | 0.944 | 0.904 | 0.895 | 1.14 | 1.04 | 0.789 | 0.623 | 0.541 |
| NCI-H650 | 0.379 | 0.319 | 0.443 | 0.387 | 0.339 | 0.549 | 0.735 | 0.636 | 0.723 | 0.566 | – | – | – | – | – | 0.681 | 0.922 | 0.883 | 0.737 | 0.688 |
| NCI-H661 | 0.421 | 0.392 | 0.374 | 0.414 | 0.374 | 1.01 | – | 0.977 | – | 0.987 | – | – | – | – | – | 0.521 | 0.635 | 0.606 | 0.563 | 0.418 |
| NCI-H1299 | – | – | – | – | – | 0.898 | 0.947 | 0.905 | 0.866 | 0.716 | 1.1 | 1.08 | 1.01 | 1.05 | 1.04 | 0.923 | 0.999 | 0.969 | 0.777 | 0.669 |
| NCI-H1395 | 0.579 | 0.664 | – | 0.6 | 0.55 | – | – | – | – | – | 1.19 | 1.14 | 1.07 | 1.13 | 0.937 | 0.993 | 1.17 | 1.09 | 0.874 | 0.638 |
| NCI-H1563 | – | – | – | – | – | 0.835 | 0.786 | 0.77 | 0.68 | 0.704 | – | – | – | – | – | 1.13 | 1.03 | 0.94 | 1.06 | 0.759 |
| NCI-H1648 | 0.281 | 0.268 | – | 0.296 | 0.299 | – | – | – | – | – | – | – | – | – | – | – | – | – | – | – |
| NCI-H1650 | 0.362 | 0.301 | 0.357 | 0.364 | 0.334 | 0.914 | 1.09 | 0.927 | 0.944 | 0.879 | 1.16 | 1.41 | 1.14 | 1.31 | 1.12 | – | – | – | – | – |
| NCI-H1703 | – | – | – | – | – | 0.665 | 0.872 | 0.815 | 0.73 | 0.217 | 1.24 | 1.15 | 1.25 | 1.42 | 1.27 | 0.515 | 1.04 | 0.765 | 0.654 | 0.608 |
| NCI-H1793 | 0.338 | 0.304 | – | 0.34 | 0.328 | – | – | – | – | – | 0.446 | 0.326 | – | 0.472 | 0.545 | 0.978 | 0.834 | 0.574 | 0.525 | 0.336 |
| NCI-H2170 | 0.436 | 0.396 | 0.413 | 0.458 | 0.475 | 1.13 | 1.16 | 1.16 | 1.22 | 1.22 | 0.601 | 0.623 | 0.618 | 0.708 | 0.713 | – | – | – | – | – |
| NCI-H2342 | 0.554 | 0.753 | 0.46 | 0.538 | 0.611 | – | – | – | – | – | – | – | – | – | – | – | – | – | – | – |
| SW 900 | 0.549 | 0.517 | 0.502 | 0.553 | 0.511 | – | – | – | – | – | – | – | – | – | – | – | – | – | – | – |
